Patent US20260092061A1, “COMPOUNDS FOR TARGETED PROTEIN DEGRADATION” (Amphista Therapeutics Limited, priority 2022, published 2026)

Biological target: T1, BRD9 (Homo sapiens, UniProt Q9H8M2)
T1 sequence (Q9H8M2 1-597): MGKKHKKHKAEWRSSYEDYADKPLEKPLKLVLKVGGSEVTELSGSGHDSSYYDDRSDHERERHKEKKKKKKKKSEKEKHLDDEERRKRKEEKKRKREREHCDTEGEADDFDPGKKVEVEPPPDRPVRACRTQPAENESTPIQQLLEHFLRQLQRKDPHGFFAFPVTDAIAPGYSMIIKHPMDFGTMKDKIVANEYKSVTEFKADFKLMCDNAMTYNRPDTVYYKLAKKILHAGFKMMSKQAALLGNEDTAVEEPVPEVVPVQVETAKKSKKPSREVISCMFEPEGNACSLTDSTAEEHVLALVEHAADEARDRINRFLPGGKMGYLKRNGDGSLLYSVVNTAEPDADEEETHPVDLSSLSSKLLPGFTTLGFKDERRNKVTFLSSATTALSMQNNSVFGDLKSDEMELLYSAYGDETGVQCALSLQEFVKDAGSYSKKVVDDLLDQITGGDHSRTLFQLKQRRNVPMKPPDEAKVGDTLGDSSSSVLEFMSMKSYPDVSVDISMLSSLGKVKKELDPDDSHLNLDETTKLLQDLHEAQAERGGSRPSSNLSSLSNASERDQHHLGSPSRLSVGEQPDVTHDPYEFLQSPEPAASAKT
Assay: Degradation of BRD9 (IF), immunofluorescence in MV4-11 cells, 24 hours (Assay Protocol 2)
Assay type: cell-based
Set-up: A suspension of MV4-11 cells (ATCC CRL-9591) was prepared; host or cells: MV4-11
Conditions: BRD9 degradation; for DC50: Assay protocol 2, read-out: DC50; for Dmax: MV4-11, Assay protocol 2, read-out: Dmax
Outline: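 % BRD9 remaining, scaled between DMSO (high) and 100 nM CFT-8634 (low) control wells, derives from mean Alexa 647 contrast in central nuclei by high-content imaging. MV4-11 cells had 24 h compound exposure at 37° C. before PFA fixation, Triton permeabilisation and anti-BRD9 E4Q3F immunostaining.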

Structure (SMILES) | DC50 [nM] | Dmax [%]
COc1cc(-c2cn(C)c(=O)c(C)c2C)cc(OC)c1CN1CCN(Cc2ccc3c(c2)[C@@H](C)N(C(=O)/C(C#N)=C/C2(OC)CC2)CC3)C2(CC2)C1 (single isomer, unassigned) [Compound C37, (E/Z)-2-(7-((7-(2,6-dimethoxy-4-(1,4,5-trimethyl-6-oxo-1,6-dihydropyridin-3-yl)benzyl)-4,7-diazaspiro[2.5]octan-4-yl)methyl)-1-methyl-1,2,3,4-tetrahydroisoquinoline-2-carbonyl)-3-(1-methoxycyclopropyl)acrylonitrile] | < 1.25 | > 75
COc1cc(-c2cn(C)c(=O)c(C)c2C)cc(OC)c1CN1CCN(Cc2ccc3c(c2)C(C)N(C(=O)/C(C#N)=C/C2(C)CCC(F)(F)CC2)CC3)C2(CC2)C1 (single isomer, unassigned) [Compound C38, (E/Z)-3-(4,4-difluoro-1-methylcyclohexyl)-2-(7-((7-(2,6-dimethoxy-4-(1,4,5-trimethyl-6-oxo-1,6-dihydropyridin-3-yl)benzyl)-4,7-diazaspiro[2.5]octan-4-yl)methyl)-1-methyl-1,2,3,4-tetrahydroisoquinoline-2-carbonyl)acrylonitrile] | 1.25 to 10 | 70 to 75
COc1cc(-c2cn(C)c(=O)c(C)c2C)cc(OC)c1CN1CCN(Cc2ccc3c(c2)[C@@H](C)N(C(=O)/C(C#N)=C/C(C)(C)CN2CCOCC2)CC3)C2(CC2)C1 (single isomer, unassigned) [Compound C40, (E/Z)-2-(7-((7-(2,6-dimethoxy-4-(1,4,5-trimethyl-6-oxo-1,6-dihydropyridin-3-yl)benzyl)-4,7-diazaspiro[2.5]octan-4-yl)methyl)-1-methyl-1,2,3,4-tetrahydroisoquinoline-2-carbonyl)-4,4-dimethyl-5-morpholinopent-2-enenitrile] | 1.25 to 10 | 70 to 75
COc1cc(-c2cn(C)c(=O)c(C)c2C)cc(OC)c1CN1CCN(Cc2ccc3c(c2)[C@@H](C)N(C(=O)/C(C#N)=C/C(C)(C)CO)CC3)C2(CC2)C1 (single isomer, unassigned) [Compound C41, (E/Z)-2-(7-((7-(2,6-dimethoxy-4-(1,4,5-trimethyl-6-oxo-1,6-dihydropyridin-3-yl)benzyl)-4,7-diazaspiro[2.5]octan-4-yl)methyl)-1-methyl-1,2,3,4-tetrahydroisoquinoline-2-carbonyl)-5-hydroxy-4,4-dimethylpent-2-enenitrile] | 1.25 to 10 | > 75

More lines, now with the values ahead:

DC50 [nM] | Dmax [%] | Structure (SMILES)
< 1.25 | > 75 | COc1cc(-c2cn(C)c(=O)c(C)c2C)cc(OC)c1CN1CCN(Cc2ccc3c(c2)[C@@H](C)N(C(=O)/C(C#N)=C/C(C)(C)O)CC3)C2(CC2)C1 (single isomer, unassigned) [Compound C39, (E/Z)-2-(7-((7-(2,6-dimethoxy-4-(1,4,5-trimethyl-6-oxo-1,6-dihydropyridin-3-yl)benzyl)-4,7-diazaspiro[2.5]octan-4-yl)methyl)-1-methyl-1,2,3,4-tetrahydroisoquinoline-2-carbonyl)-4-hydroxy-4-methylpent-2-enenitrile]
1.25 to 10 | 70 to 75 | COc1cc(-c2cn(C)c(=O)c(C)c2C)cc(OC)c1CN1CC(N(C)c2ccc3c(c2)[C@H](C)N(C(=O)/C(C#N)=C/C(C)(C)C)CC3)C1 (single isomer, unassigned) [Compound C44]
10 to 25 | 40 to 70 | COc1cc(-c2cn(C)c(=O)c(C)c2C)cc(OC)c1CN1CCC2(CCN(c3ccc4c(c3)[C@H](C)N(C(=O)/C(C#N)=C/C(C)(C)C)CC4)C2)C1 (single isomer, unassigned) [Compound C52]
1.25 to 10 | 40 to 70 | COc1cc(-c2cn(C)c(=O)c(C)c2C)cc(OC)c1CN1CCC(Cc2cccc3c2CCN(C(=O)/C(C#N)=C/C(C)(C)C)[C@H]3C)CC1 (single isomer, unassigned) [Compound C59, (E/Z)-2-(5-((1-(2,6-dimethoxy-4-(1,4,5-trimethyl-6-oxo-1,6-dihydropyridin-3-yl)benzyl)piperidin-4-yl)methyl)-1-methyl-1,2,3,4-tetrahydroisoquinoline-2-carbonyl)-4,4-dimethylpent-2-enenitrile]
